Measured values from BigSolDB 2.1.

CC(C)(C)c1ccc(-c2nnc(-c3ccc(-c4ccccc4)cc3)o2)cc1
solubility (mole fraction)
Details | 273.15 K | 283.15 K | 293.15 K | 303.15 K | 313.15 K | 323.15 K | 333.15 K
in DMSO | – | – | 0.00363 | 0.00603 | 0.00886 | 0.0133 | 0.0187
in NMP | – | 0.0542 | 0.0662 | 0.0767 | 0.0954 | 0.115 | –
in THF | – | 0.0524 | 0.0589 | 0.065 | 0.0725 | 0.0817 | –
in acetonitrile | – | 0.00143 | 0.00234 | 0.00313 | 0.00464 | 0.00615 | –
in chlorobenzene | – | 0.0587 | 0.0709 | 0.0834 | 0.0952 | 0.112 | –
in dichloromethane | 0.0818 | 0.0911 | 0.104 | 0.112 | – | – | –
in ethanol | – | 0.00062 | 0.000963 | 0.00148 | 0.00222 | 0.00315 | –
in ethyl acetate | – | 0.0114 | 0.0153 | 0.0223 | 0.03 | 0.0392 | –
in isopropanol | – | 0.000711 | 0.0012 | 0.00174 | 0.00274 | 0.00324 | –
in methanol | – | 0.000412 | 0.000703 | 0.00105 | 0.00185 | 0.00281 | –
in n-hexane | – | 0.000411 | 0.000596 | 0.000996 | 0.00164 | 0.00235 | –
in toluene | – | 0.0303 | 0.04 | 0.0585 | 0.0834 | 0.109 | –
